Measurements published in patent US9999619B2, “Piperidin-4-yl azetidine derivatives as JAK1 inhibitors” (Incyte Corporation, priority 2010, dated 2018).

Experiments:
Assay type in all cases: biochemical
[1] = molecular target: human JAK1 (a.a. 837-1142) (Homo sapiens, UniProt P23458); experiment: In vitro JAK kinase assay (HTRF, phosphorylation of a biotinylated peptide), JAK1; conditions: measured at 1 mM ATP
Method in brief: (§1)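 Phosphorylation of a biotinylated peptide by purified His-tagged JAK catalytic domains (insect-cell baculovirus expression) ran 1 hr at room temperature. After stopping with EDTA, Eu-Py20 and SA-APC were bound for 40 minutes and HTRF measured.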

[2] = molecular target: human JAK1 (a.a. 837-1142); experiment: as above; conditions: ratio of JAK2 IC50 to JAK1 IC50, measured at 1 mM ATP
Method in brief: as §1

[3] = molecular target: Jak2 (a.a. 828-1132) (Homo sapiens (Human), UniProt O60674); experiment: In vitro JAK kinase assay (HTRF, phosphorylation of a biotinylated peptide), JAK2; conditions: measured at 1 mM ATP
Chain of Jak2 (a.a. 828-1132) (O60674 828-1132): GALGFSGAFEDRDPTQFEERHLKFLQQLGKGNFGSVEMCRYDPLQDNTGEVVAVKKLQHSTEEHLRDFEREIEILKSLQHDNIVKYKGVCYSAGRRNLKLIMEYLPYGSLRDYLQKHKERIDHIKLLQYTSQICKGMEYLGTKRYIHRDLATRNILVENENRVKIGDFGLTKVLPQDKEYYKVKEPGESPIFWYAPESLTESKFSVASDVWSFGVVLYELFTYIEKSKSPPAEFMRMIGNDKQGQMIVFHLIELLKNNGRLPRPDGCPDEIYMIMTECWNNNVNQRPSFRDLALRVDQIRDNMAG
Method in brief: as §1

SMILES | IC50 [1] | IC50 Ratio JAK2/JAK1 [2] | IC50 [3]
N#CCC1(n2cc(-c3ncnc4[nH]ccc34)cn2)CN(C2CCN(C(=O)c3ccc(-c4ccc5ccncc5c4)c(F)c3)CC2)C1 [Example 133, {1-[1-(3-fluoro-4-isoquinolin-7-ylbenzoyl)piperidin-4-yl]-3-[4-(7H-pyrrolo[2,3-d]pyrimidin-4-yl)-1H-pyrazol-1-yl]azetidin-3-yl}acetonitrile] | ≤ 5 nM | 7.9 | 10 to 50 nM
COc1ccc(F)c(C(=O)N2CCC(N3CC(CC#N)(n4cc(-c5ncnc6[nH]ccc56)cn4)C3)CC2)c1 [Example 27, {1-[1-(2-fluoro-5-methoxybenzoyl)piperidin-4-yl]-3-[4-(7H-pyrrolo[2,3-d]pyrimidin-4-yl)-1H-pyrazol-1-yl]azetidin-3-yl}acetonitrile] | 5 to 20 nM | 5.1 | 50 to 100 nM
Cc1ccc(NC(=O)N2CCC(N3CC(CC#N)(n4cc(-c5ncnc6[nH]ccc56)cn4)C3)CC2)c(C)n1 [Example 189, 4-{3-(cyanomethyl)-3-[4-(7H-pyrrolo[2,3-d]pyrimidin-4-yl)-1H-pyrazol-1-yl]azetidin-1-yl}-N-(2,6-dimethylpyridin-3-yl)piperidine-1-carboxamide] | 5 to 20 nM | 3.5 | 10 to 50 nM
COc1c(Br)cc(C(=O)N2CCC(N3CC(CC#N)(n4cc(-c5ncnc6[nH]ccc56)cn4)C3)CC2)cc1Br [Example 50, {1-[1-(3,5-dibromo-4-methoxybenzoyl)piperidin-4-yl]-3-[4-(7H-pyrrolo[2,3-d]pyrimidin-4-yl)-1H-pyrazol-1-yl]azetidin-3-yl}acetonitrile] | ≤ 5 nM | 6.9 | ≤ 10 nM
N#CCC1(n2cc(-c3c(F)cnc4[nH]ccc34)cn2)CN(C2CCN(C(=O)c3ccc(F)cn3)CC2)C1 [Example 319, {1-{1-[(5-fluoropyridin-2-yl)carbonyl]piperidin-4-yl}-3-[4-(5-fluoro-1H-pyrrolo[2,3-b]pyridin-4-yl)-1H-pyrazol-1-yl]azetidin-3-yl}acetonitrile] | ≤ 5 nM | 4.0 | 10 to 50 nM
COc1cccc(NC(=O)N2CCC(N3CC(CC#N)(n4cc(-c5ncnc6[nH]ccc56)cn4)C3)CC2)c1 [Example 181, 4-{3-(cyanomethyl)-3-[4-(7H-pyrrolo[2,3-d]pyrimidin-4-yl)-1H-pyrazol-1-yl]azetidin-1-yl}-N-(3-methoxyphenyl)piperidine-1-carboxamide] | ≤ 5 nM | 4.9 | 10 to 50 nM
N#CCC1(n2cc(-c3ncnc4[nH]ccc34)cn2)CN(C2CCN(C(=O)c3ccc(-c4cccc5ccncc45)c(F)c3)CC2)C1 [Example 131, {1-[1-(3-fluoro-4-isoquinolin-8-ylbenzoyl)piperidin-4-yl]-3-[4-(7H-pyrrolo[2,3-d]pyrimidin-4-yl)-1H-pyrazol-1-yl]azetidin-3-yl}acetonitrile] | ≤ 5 nM | 8.1 | 10 to 50 nM
COc1ccccc1NC(=O)N1CCC(N2CC(CC#N)(n3ccc(-c4ncnc5[nH]ccc45)c3)C2)CC1 [Example 288, 4-{3-(cyanomethyl)-3-[3-(7H-pyrrolo[2,3-d]pyrimidin-4-yl)-1H-pyrrol-1-yl]azetidin-1-yl}-N-(2-methoxyphenyl)piperidine-1-carboxamide] | ≤ 5 nM | 9.0 | ≤ 10 nM
N#CCC1(n2cc(-c3ncnc4[nH]ccc34)cn2)CN(C2CCN(C(=O)c3c(F)cc(-c4cccnc4)cc3F)CC2)C1 [Example 116, {1-[1-(2,6-difluoro-4-pyridin-3-ylbenzoyl)piperidin-4-yl]-3-[4-(7H-pyrrolo[2,3-d]pyrimidin-4-yl)-1H-pyrazol-1-yl]azetidin-3-yl}acetonitrile] | ≤ 5 nM | 10.6 | 10 to 50 nM
N#CCC1(n2cc(-c3c(C#N)cnc4[nH]ccc34)cn2)CN(C2CCN(C(=O)c3cc(C#N)cc(C#N)c3)CC2)C1 [Example 338, 5-[(4-{3-(cyanomethyl)-3-[4-(5-cyano-1H-pyrrolo[2,3-b]pyridin-4-yl)-1H-pyrazol-1-yl]azetidin-1-yl}piperidin-1-yl)carbonyl]isophthalonitrile] | 5 to 20 nM | 7.4 | 50 to 100 nM
CC(C)(C)C(=O)Nc1ncccc1CN1CCC(N2CC(CC#N)(n3cc(-c4ncnc5[nH]ccc45)cn3)C2)CC1 [Example 235] | 5 to 20 nM | 2.5 | 10 to 50 nM
Cc1ccsc1C(=O)N1CCC(N2CC(CC#N)(n3cc(-c4ncnc5[nH]ccc45)cn3)C2)CC1 [Example 78, {1-{1-[(3-methyl-2-thienyl)carbonyl]piperidin-4-yl}-3-[4-(7H-pyrrolo[2,3-d]pyrimidin-4-yl)-1H-pyrazol-1-yl]azetidin-3-yl}acetonitrile] | ≤ 5 nM | 5.4 | 10 to 50 nM
N#CCC1(n2cc(-c3ncnc4[nH]ccc34)cn2)CN(C2CCN(C(=O)c3c(F)cc(C#N)cc3F)CC2)C1 [Example 83, 4-[(4-{3-(cyanomethyl)-3-[4-(7H-pyrrolo[2,3-d]pyrimidin-4-yl)-1H-pyrazol-1-yl]azetidin-1-yl}piperidin-1-yl)carbonyl]-3,5-difluorobenzonitrile] | ≤ 5 nM | 5.8 | 10 to 50 nM
N#CCC1(n2ccc(-c3ncnc4[nH]ccc34)c2)CN(C2CCN(C(=O)c3cc(F)cc(C#N)c3)CC2)C1 [Example 263, 3-[(4-{3-(cyanomethyl)-3-[3-(7H-pyrrolo[2,3-d]pyrimidin-4-yl)-1H-pyrrol-1-yl]azetidin-1-yl}piperidin-1-yl)carbonyl]-5-fluorobenzonitrile] | ≤ 5 nM | 12.2 | 50 to 100 nM
N#CCC1(n2cc(-c3ncnc4[nH]ccc34)cn2)CN(C2CCN(C(=O)c3ccc4ncccc4c3)CC2)C1 [Example 89, {3-[4-(7H-pyrrolo[2,3-d]pyrimidin-4-yl)-1H-pyrazol-1-yl]-1-[1-(quinolin-6-ylcarbonyl)piperidin-4-yl]azetidin-3-yl}acetonitrile] | ≤ 5 nM | 2.6 | ≤ 10 nM
N#CCC1(n2cc(-c3ncnc4[nH]ccc34)cn2)CN(C2CCN(C(=O)C3(c4ccccc4)CC3)CC2)C1 [Example 110, {1-{1-[(1-phenylcyclopropyl)carbonyl]piperidin-4-yl}-3-[4-(7H-pyrrolo[2,3-d]pyrimidin-4-yl)-1H-pyrazol-1-yl]azetidin-3-yl}acetonitrile] | 5 to 20 nM | 1.6 | 10 to 50 nM
N#CCC1(n2ccc(-c3ncnc4[nH]ccc34)c2)CN(C2CCN(C(=O)c3cccs3)CC2)C1 [Example 271, {3-[3-(7H-pyrrolo[2,3-d]pyrimidin-4-yl)-1H-pyrrol-1-yl]-1-[1-(2-thienylcarbonyl)piperidin-4-yl]azetidin-3-yl}acetonitrile] | ≤ 5 nM | 7.8 | 10 to 50 nM
N#CCC1(n2cc(-c3ccnc4[nH]ccc34)cn2)CN(C2CCN(C(=O)C3CCC(F)(F)CC3)CC2)C1 [Example 302, {1-{1-[(4,4-fluorocyclohexyl)carbonyl]piperidin-4-yl}-3-[4-(1H-pyrrolo[2,3-b]pyridin-4-yl)-1H-pyrazol-1-yl]azetidin-3-yl}acetonitrile] | 20 to 30 nM | 6.5 | > 100 nM
N#CCC1(n2cc(-c3ncnc4[nH]ccc34)cn2)CN(C2CCN(C(=O)Nc3nc(-c4ccc(Cl)cc4)cs3)CC2)C1 [Example 195, N-[4-(4-chlorophenyl)-1,3-thiazol-2-yl]-4-{3-(cyanomethyl)-3-[4-(7H-pyrrolo[2,3-d]pyrimidin-4-yl)-1H-pyrazol-1-yl]azetidin-1-yl}piperidine-1-carboxamide] | 20 to 30 nM | 3.2 | 50 to 100 nM
N#CCC1(n2ccc(-c3ncnc4[nH]ccc34)c2)CN(C2CCN(C(=O)Nc3ccc(F)cc3C(F)(F)F)CC2)C1 [Example 283, 4-{3-(Cyanomethyl)-3-[3-(7H-pyrrolo[2,3-d]pyrimidin-4-yl)-1H-pyrrol-1-yl]azetidin-1-yl}-N-[4-fluoro-2-(trifluoromethyl)phenyl]piperidine-1-carboxamide] | ≤ 5 nM | 35.6 | 50 to 100 nM
N#CCC1(n2cc(-c3ncnc4[nH]ccc34)cn2)CN(C2CCN(C(=O)c3ccc(-c4cccc5cnccc45)c(F)c3)CC2)C1 [Example 130, {1-[1-(3-fluoro-4-isoquinolin-5-ylbenzoyl)piperidin-4-yl]-3-[4-(7H-pyrrolo[2,3-d]pyrimidin-4-yl)-1H-pyrazol-1-yl]azetidin-3-yl}acetonitrile] | ≤ 5 nM | 7.1 | ≤ 10 nM
N#CCC1(n2cc(-c3c(C#N)cnc4[nH]ccc34)cn2)CN(C2CCN(C(=O)c3ccc(C#N)c(F)c3)CC2)C1 [Example 334, 4-{1-[1-[1-(4-cyano-3-fluorobenzoyl)piperidin-4-yl]-3-(cyanomethyl)azetidin-3-yl]-1H-pyrazol-4-yl}-1H-pyrrolo[2,3-b]pyridine-5-carbonitrile] | 20 to 30 nM | 4.3 | > 100 nM
N#CCC1(n2cc(-c3ncnc4[nH]ccc34)cn2)CN(C2CCN(C(=O)c3ccc(C#N)cc3)CC2)C1 [Example 12, 4-[(4-{3-(cyanomethyl)-3-[4-(7H-pyrrolo[2,3-d]pyrimidin-4-yl)-1H-pyrazol-1-yl]azetidin-1-yl}piperidin-1-yl)carbonyl]benzonitrile] | 20 to 30 nM | 5.2 | > 100 nM
